A short description of the series: Tissue, plasma and GI content pharmacokinetics of tacrolimus, oral vs intra-cecal ingestible device delivery in swine. To be noted: intra-cecally vs orally administered, 12 hours post-dose, FIG. 76. It is filed as in vivo. How it is done: No further randomization procedure was employed.
Animals in Group 1 received an ingestible device containing 0.8 mL of vehicle solution (80% alcohol, 20% HCO-60). Animals in Group 2 received orally […] liquid formulation of tacrolimus at 4 mg/0.8 mL per animal (Prograf: 5 mg/mL). Animals in Group 3 received intra-cecally an ingestible device containing tacrolimus at 1 mg in 0.8 mL per ingestible device. Animals in Group 4 received intra-cecally an ingestible device containing tacrolimus at 2 mg in 0.8 mL per ingestible device. Animals in Group 5 received intra-cecally an ingestible device containing tacrolimus at 4 mg in 0.8 mL per ingestible device. […]
Approximately 200˜400 mg of rectal content were collected, if available, with a fecal swab (Copan Diagnostics Nylon Flocked Dry Swabs, 502CS01). The fecal swab was pre-weighed and weighed after collection in the collection tube (Sterile Tube and Cap No Media, PFPM913S), and the sample weight was recorded. […]
For tissue necropsy, small intestine fluid and cecal fluid were collected separately from all the animals into two separate square plastic bottles, and stored at −20° C. The length and diameter of the cecum and the colon was measured from one animal in each group and recorded for reference. […] All samples were weighed, and the tissue sample weights were recorded. […]

SMILES strings stand for the structures.

For `C=CC[C@@H]1/C=C(\C)C[C@H](C)C[C@H](OC)[C@H]2O[C@@](O)(C(=O)C(=O)N3CCCC[C@H]3C(=O)O[C@H](/C(C)=C/[C@@H]3CC[C@@H](O)[C@H](OC)C3)[C@H](C)[C@@H](O)CC1=O)[C@H](C)C[C@@H]2OC` [tacrolimus], the “mean concentration in the cecum tissue and the proximate colon tissue” value was “higher”.

Source of the values: patent US20200315540A1, “TREATMENT OF A DISEASE OF THE GASTROINTESTINAL TRACT WITH AN IL-1 INHIBITOR” (Progenity, Inc., priority 2016, published 2020).
